Results reported in ChEMBL document CHEMBL1151189, “Antimicrobial chlorinated bibenzyls from the liverwort Riccardia marginata” (2004).
Activity calls are given as the source filed them. The rule behind the calls is not given here.

Assays:
Bacillus subtilis [1] = experiment: Antimicrobial activity against Bacillus subtilis at 30 ug/5 mm disk; assay type: functional
Escherichia coli = experiment: Antimicrobial activity against Escherichia coli; assay type: functional, organism-based
Candida albicans = experiment: Antimicrobial activity against Candida albicans at 30 ug/disk; assay type: functional; conditions: read-out: IZ
[2] = system: Trichophyton mentagrophytes; experiment: Antimicrobial activity against Trichophyton mentagrophytes at 30 ug/disk; assay type: functional; conditions: read-out: IZ
Amorphotheca resinae = experiment: Antimicrobial activity against Cladosporium resinae at 30 ug/disk; assay type: functional; conditions: read-out: IZ
Bacillus subtilis [3] = experiment: Antimicrobial activity against Bacillus subtilis at 30 ug/disk; assay type: functional; conditions: read-out: IZ

SMILES | inhibition zone (IZ) (Bacillus subtilis [1]) | Activity (Escherichia coli) | zone of inhibition at 30 µg/disc (Candida albicans) | zone of inhibition at 30 µg/disc [2] | zone of inhibition at 30 µg/disc (Amorphotheca resinae) | zone of inhibition at 30 µg/disc (Bacillus subtilis [3])
Oc1c(Cl)cc(Cl)c(CCc2ccccc2)c1Cl | 2 mm | inactive | 2 mm | 7 mm | 1 mm | 
Oc1c(Cl)ccc(CCc2ccccc2)c1Cl |  | inactive | 2 mm | 12 mm | 2 mm | 2 mm
Oc1cccc(CCc2ccccc2)c1Cl |  | inactive | 2 mm | 3 mm | 0 mm | 2 mm
